Assay results taken from publication PMC6160999, “Pharmacokinetics, Tissue Distribution and Excretion of a Novel Diuretic (PU-48) in Rats” (Pharmaceutics, 2018).
Read-outs that look alike come from different tables or passages of the source.

Legend:
plasma protein = assay: Plasma protein binding by equilibrium dialysis, human plasma; format: in vitro ADME; settings: for Concentration in Buffer (post-dialysis) / Concentration in Plasma (post-dialysis) / Protein-Binding Ratio: human plasma, n=5; for Concentration in Buffer (post-dialysis) / Concentration in Plasma (post-dialysis): 37 °C 24 h
Method: The concentration of PU-48 prototype in biological sample (feces and plasma protein binding analysis) was determined using a validated high-performance liquid chromatographic (HPLC) method our preliminary experiment (See Supplementary Materials HPLC Analysis and Method Validation). Briefly, the quantitative analysis of PU-48 was performed using a HPLC consistent of model 510 pump with a model 2487 ultraviolet detector, a model Rheodyne 7725 injector, and a column oven. The analytical conditions were as follows—The detection wavelength—293 nm; analytical column—a reversed-phase Acclaim C18 (4.6 mm × 250 mm, 5.0 µm, Dionex, Sunnyvale, CA, USA); column temperature—25 °C; mobile phase—acetonitrile—distilled water at a ratio of 60:40 (v/v); flow rate—1 mL/min. In this study, the methods for the feces samples were evaluated for specificity, linearity, precision, accuracy, and recovery (See Supplementary Materials Tables S4–S6).
The binding ratio of PU-48 to plasma protein was determined by equilibrium dialysis. A volume of 1 mL of plasma with PU-48 (0.25, 1 and 4 µg/mL) was added to a semi-permeable membrane bag (plasma chamber), the bag was place into the other clean tube with 9 mL PBS (buffer chamber). The equilibrium dialysis was performed at 37 °C for 24 h. At the end of dialysis, 500 μL each of post-dialysis samples from the plasma and the buffer chambers were collected and analyzed by HPLC method. The plasma protein binding of PU-48 was calculated from the concentration of PU-48 in PBS (free concentration) and in plasma (free + bound) according to equation: Bound (%) = (Concplasma chamber − Concbuffer chamber)/Concplasma chamber × 100%.

[1] = Tissue distribution after single oral PU-48 SNEDDS; format: in vivo; settings: rat, oral PU-48 SNEDDS 12 mg/kg
Method: Internal standard (IS, 25 μL) was added to 50 μL plasma, urine, or bile sample in a clean tube, placed into a water bath at 37 °C, and dried under a gentle stream of nitrogen gas, followed by the addition of 0.5 mL of ethyl acetate for liquid-liquid extraction. The mixture was shaken by a vortex mixer for 3 min, and then centrifuged at 8000 rpm (4200× g) for 10 min at 4 °C. After centrifugation, the upper organic phase was transferred into a clean centrifuge tube and then dried it again. The combined upper organic phases were evaporated to dryness at 37 °C under a gentle stream of nitrogen gas. The residue was reconstituted with 50 μL acetonitrile and then centrifuged at 13,000 rpm (12,000× g) for 10 min at 4 °C, the upper liquid was transferred into sample vials. Finally, 5 μL aliquots were injected into the LC–MS/MS system to analyze. Each tissue samples were homogenized in normal saline (0.9% NaCl, 1:3, w/v), and then centrifuged at 10,000× g for 10 min to get the supernatant. Other steps were the same as plasma sample preparation.
Thirty rats were divided randomly into five groups and the rats were given single orally administration of PU-48 (12 mg/kg, 1.2 mg/mL in the SNEDDS formulation). […] After the final time point, the rats were sacrificed and thirteen tissues (liver, spleen, lung, kidney, heart, muscle, colon, intestine, stomach, bladder, testicle, adipose, brain) were collected. Tissues samples were rinsed with ice-cold 0.9% normal saline and blotted dry with filter paper. All the samples were weighted and stored at −20 °C until analysis.

[2] = bladder, read-out: Concentration of PU-48 in bladder
[3] = brain, read-out: Concentration of PU-48 in brain
[4] = colon, read-out: Concentration of PU-48 in colon
[5] = fat, read-out: Concentration of PU-48 in fat
[6] = heart, read-out: Concentration of PU-48 in heart
[7] = intestine, read-out: Concentration of PU-48 in intestine
[8] = kidney, read-out: Concentration of PU-48 in kidney
[9] = liver, read-out: Concentration of PU-48 in liver
[10] = lung, read-out: Concentration of PU-48 in lung
[11] = male, testicle, read-out: Concentration of PU-48 in testicle
[12] = muscle, read-out: Concentration of PU-48 in muscle
[13] = plasma, read-out: Concentration of PU-48 in plasma
[14] = spleen, read-out: Concentration of PU-48 in spleen
[15] = stomach, read-out: Concentration of PU-48 in stomach

Concentration in Buffer (post-dialysis) (plasma protein; added 0.25 µg/mL): 12 ± 3 ng/mL
Concentration in Plasma (post-dialysis) (plasma protein; added 0.25 µg/mL): 146 ± 8 ng/mL
Protein-Binding Ratio (plasma protein; added 0.25 µg/mL): 91.60 ± 1.57%
Concentration in Buffer (post-dialysis) (plasma protein; added 1 µg/mL): 52 ± 3 ng/mL
Concentration in Plasma (post-dialysis) (plasma protein; added 1 µg/mL): 611 ± 27 ng/mL
Protein-Binding Ratio (plasma protein; added 1 µg/mL): 91.48 ± 0.64%
Concentration in Buffer (post-dialysis) (plasma protein; added 4 µg/mL): 231 ± 29 ng/mL
Concentration in Plasma (post-dialysis) (plasma protein; added 4 µg/mL): 2290 ± 93 ng/mL
Protein-Binding Ratio (plasma protein; added 4 µg/mL): 89.90 ± 1.50%
fraction unbound at 24 h (plasma protein; plasma, human, overall statement): < 0.1
concentration at 0.5 h [1, 2]: 258 ± 94.2 ng/g
concentration at 1 h [1, 2]: 368 ± 124 ng/g
concentration at 6 h [1, 2]: 43.4 ± 10.7 ng/g
concentration at 12 h [1, 2]: 6.1 ± 3.2 ng/g
concentration at 24 h [1, 2]: 8.6 ± 6.5 ng/g
concentration at 0.5 h [1, 3]: 111 ± 23.3 ng/g
concentration at 1 h [1, 3]: 68.1 ± 52.7 ng/g
concentration at 6 h [1, 3]: 15.7 ± 19.3 ng/g
concentration at 12 h [1, 3]: 1.7 ± 1.5 ng/g
concentration at 0.5 h [1, 4]: 90.4 ± 30 ng/g
concentration at 1 h [1, 4]: 172 ± 89.5 ng/g
concentration at 6 h [1, 4]: 35.2 ± 14.7 ng/g
concentration at 12 h [1, 4]: 28.6 ± 21.7 ng/g
concentration at 24 h [1, 4]: 14.1 ± 5.6 ng/g
concentration at 0.5 h [1, 5]: 481 ± 398 ng/g
concentration at 1 h [1, 5]: 99.3 ± 26.9 ng/g
concentration at 6 h [1, 5]: 52.3 ± 43.2 ng/g
concentration at 12 h [1, 5]: 2.7 ± 1.9 ng/g
concentration at 24 h [1, 5]: 0.7 ± 0.6 ng/g
concentration at 0.5 h [1, 6]: 251 ± 78.4 ng/g
concentration at 1 h [1, 6]: 125 ± 31 ng/g
concentration at 6 h [1, 6]: 11.3 ± 11.2 ng/g
concentration at 24 h [1, 6]: 0.5 ng/g
concentration at 0.5 h [1, 7]: 655 ± 89.3 ng/g
concentration at 1 h [1, 7]: 777 ± 277 ng/g
concentration at 6 h [1, 7]: 209 ± 166 ng/g
concentration at 12 h [1, 7]: 45.4 ± 18.9 ng/g
concentration at 24 h [1, 7]: 9 ± 4.7 ng/g
concentration at 0.5 h [1, 8]: 416 ± 138 ng/g
concentration at 1 h [1, 8]: 297 ± 241 ng/g
concentration at 6 h [1, 8]: 44.5 ± 33.9 ng/g
concentration at 12 h [1, 8]: 4.7 ± 1.1 ng/g
concentration at 24 h [1, 8]: 5.3 ± 3.4 ng/g
concentration at 0.5 h [1, 9]: 622 ± 183 ng/g
concentration at 1 h [1, 9]: 534 ± 228 ng/g
concentration at 6 h [1, 9]: 42.7 ± 27.3 ng/g
concentration at 12 h [1, 9]: 13.4 ± 3.1 ng/g
concentration at 24 h [1, 9]: 20.4 ± 12.2 ng/g
concentration at 0.5 h [1, 10]: 231 ± 79.3 ng/g
concentration at 1 h [1, 10]: 174 ± 91.4 ng/g
concentration at 6 h [1, 10]: 7.2 ± 5.7 ng/g
concentration at 12 h [1, 10]: 0.9 ± 0.1 ng/g
concentration at 24 h [1, 10]: 1.3 ± 0.9 ng/g
concentration at 0.5 h [1, 11]: 34.2 ± 21.2 ng/g
concentration at 1 h [1, 11]: 51.7 ± 24.4 ng/g
concentration at 6 h [1, 11]: 9.5 ± 8.5 ng/g
concentration at 12 h [1, 11]: 1.5 ± 0.7 ng/g
concentration at 24 h [1, 11]: 1.4 ± 1.1 ng/g
concentration at 0.5 h [1, 12]: 39.8 ± 28.6 ng/g
concentration at 1 h [1, 12]: 52 ± 25.5 ng/g
concentration at 6 h [1, 12]: 4.5 ± 3.5 ng/g
concentration at 12 h [1, 12]: 2 ± 1.9 ng/g
concentration at 24 h [1, 12]: 1.4 ± 1.5 ng/g
concentration at 0.5 h [1, 13]: 277 ± 42.4 ng/mL
concentration at 1 h [1, 13]: 119 ± 63.5 ng/mL
concentration at 6 h [1, 13]: 16.8 ± 26.4 ng/mL
concentration at 12 h [1, 13]: 2.4 ± 1.7 ng/mL
concentration at 24 h [1, 13]: 0.3 ± 0.1 ng/mL
Peak concentration of PU-48 in brain [1]: 111.1 ± 23.3 ng/mL
Tmax ([1]; thirteen tissues, read-out: Peak time (Tmax) of PU-48 in analyzed tissues): 30 to 60 min
concentration at 0.5 h [1, 14]: 266 ± 120 ng/g
concentration at 1 h [1, 14]: 161 ± 64 ng/g
concentration at 6 h [1, 14]: 15.2 ± 12.9 ng/g
concentration at 12 h [1, 14]: 3.8 ± 5.7 ng/g
concentration at 24 h [1, 14]: 9.9 ± 12 ng/g
concentration at 0.5 h [1, 15]: 887 ± 235 ng/g
concentration at 1 h [1, 15]: 2020 ± 822 ng/g
concentration at 6 h [1, 15]: 509 ± 160 ng/g
concentration at 12 h [1, 15]: 104 ± 28.4 ng/g
concentration at 24 h [1, 15]: 7 ± 3.1 ng/g
concentration at 24 h ([1]; tissues except liver and colon, read-out: Concentrations of PU-48 in tissues except liver and colon): < 10 ng/g
SMILES: COC(=O)c1sc2nc3ccc(OC)cc3cc2c1N [PU-48, Methyl 3-amino-6-methoxythieno [2,3-b] quinoline-2-carboxylate]
Blood brain barrier crossing ([1]; inferred from brain concentration): could cross the blood brain barrier (BBB)
